Structures are written as SMILES. Activity calls are given as the source filed them. The rule behind the calls is not given here.

One assay concerns A549. Briefly: Cytotoxicity against human A549 cells. The class given is functional, cell-based.
Assay [1] relates to Saccharomyces cerevisiae. Briefly: DNA damaging activity against wild type DNA repair-proficient yeast RS 188N (RAD+) assessed as drug level required to produce 12 mm zone of inhibition. The class given is functional.
The subject of assay [2] is Saccharomyces cerevisiae. Briefly: DNA damaging activity against DNA repair rad 52Y gene-deficient yeast RS 322YK mutant assessed as drug level required to produce 12 mm zone of inhibition. The class given is functional.
Assay [3] has as its system Saccharomyces cerevisiae. Put plainly: DNA damaging activity against DNA repair rad6 gene-deficient yeast RS 167N mutant. The class given is functional, organism-based.
Assay [4] deals with Saccharomyces cerevisiae. Briefly: DNA damaging activity against DNA repair-deficient yeast RS 321N mutant assessed as drug level required to produce 12 mm zone of inhibition. The class given is functional.

In the assay with A549, `COc1c(O)cc2c(c1O)-c1nccc(C)c1C2=O` [CYATHOCALINE] yielded an IC50 of 8.5 µM. Further, the IC12 in the assay with Saccharomyces cerevisiae [1] was over 400 µg/mL; in the assay on Saccharomyces cerevisiae [2], 90 µg/mL; in the assay on Saccharomyces cerevisiae [4] it was 87 µg/mL. Moreover, in the assay on Saccharomyces cerevisiae [3], the result was inactive.

Usually IC50 stands for the concentration needed to halve the response being measured. A high value points to a need for much substance.

The values are drawn from ChEMBL document CHEMBL1159231, “Cyathocaline, an Azafluorenone Alkaloid from Cyathocalyx zeylanica” (J Nat Prod, 1995).
